The source of these data is PMC12684391, “Mechanistic insights into the monotherapy and combination potential of FEN1 inhibition in cancer therapy” (Nucleic Acids Research, 2025).

One experiment deals with T1, EXO1 (Homo sapiens, UniProt Q9UQ84).
T1 construct: EXO1 (1-846); purchased Peak Proteins, Macclesfield, UK
The experiment in a line: Fluorescence-based nuclease activity assay, EXO1. To be noted: n = 3, SD = 223; cognate substrate. Type of experiment: biochemical. As for the experimental part:
MSC778 was dissolved in dimethyl sulphoxide (DMSO) to give a 10 mM stock. FEN1/EXO1: compound was dispensed into black 384-shallow well microplates (Greiner #784076). The compound was dispensed as an 11-point dose response with a 3-fold serial dilution from a top concentration of 10 mM (to give a final in-assay concentration of 100 µM). GEN1/XPG: MSC778 was dispensed into black 1536-well plates (Greiner #782076). The compound was dispensed as a 20-point dose response with a 3-fold serial dilution from a top concentration of 10 mM (to give a final in-assay concentration of 100 µM). The volume of DMSO was adjusted to ensure that each well contained 1% (v/v) DMSO in the final assay. Control wells containing DMSO alone or inhibitor at sufficient concentration to cause complete inhibition of the reaction were also included. […]
5 µl (FEN1/EXO1) or 3 µl per well (GEN1/XPG) of stop buffer (20 mM Tris pH 7.5, 300 mM EDTA) was added to all wells, then the plates were read on the CLARIOstar Plus (BMG LABTECH Ltd.) using the Fluorescein (FITC) wavelengths (Ex 483 ± 14, Em 530 ± 30, Dichroic auto/502.5) and auto focal height/gain settings.
All data analysis was carried out using Genedata Screener software. IC50 values were calculated using the SmartFit function.

The next experiment deals with T2, NanoLuc-FEN1 (Homo sapiens, UniProt P39748).
T2 construct: host or cells: HEK-293
T2 sequence (P39748 whole entry): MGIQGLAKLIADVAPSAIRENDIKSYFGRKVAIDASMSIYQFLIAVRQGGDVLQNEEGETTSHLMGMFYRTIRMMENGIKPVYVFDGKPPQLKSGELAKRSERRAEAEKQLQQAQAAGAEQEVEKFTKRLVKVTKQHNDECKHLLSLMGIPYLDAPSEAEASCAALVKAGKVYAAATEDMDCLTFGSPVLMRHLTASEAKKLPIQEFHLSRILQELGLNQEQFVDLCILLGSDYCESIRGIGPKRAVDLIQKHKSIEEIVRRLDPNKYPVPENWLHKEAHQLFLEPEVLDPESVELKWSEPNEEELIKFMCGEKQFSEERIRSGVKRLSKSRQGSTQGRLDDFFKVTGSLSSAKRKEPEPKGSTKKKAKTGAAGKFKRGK
The experiment in a line: NanoBRET cellular target engagement assay in HEK-293 cells. Type of experiment: cell-based. To be noted: more potent than MSC781. As for the experimental part: The NanoBRET™ assay was set-up and performed by Promega, Madison, USA [40]. The tracer compound (“tracer 6”) was synthesized based on an in-house compound. A NanoLuc®-FEN1 expression plasmid was transiently transfected into HEK-293 cells and 20 µl of subsequent cell/DNA suspension dispensed into wells of 384-well assay plates. Tracer 6 (final concentration 125 nM) and test compounds (10 step 1:3 dilution from a top concentration of 10 µM) in 100% DMSO were dispensed with a Echo Labcyte (Beckman Coulter) in technical duplicates.
To induce NanoLuc activity, 10 µl of 3× detection substrate NanoBRET™ Nano-GLO® Live Cell Solution in OptiMEM with digitonin (final concentration 150 µg/ml) were added per well. Kinetics were followed by luminescence multimode reader (DonorEm 450nm/AcceptorEm 610 nm) for 1 h. BRET ratios were calculated and resulting mBRET values were graphed versus compound concentrations and fitted to a nonlinear regression curve (four parameters) to determine IC50 values.
In this assay, NanoBRET occurs between a fluorescent moiety (acceptor) on a tracer molecule and the NanoLuc tag (donor) on FEN1 that are in close proximity.
In general terms: BRET reads energy transfer from a luciferase to a nearby fluorophore.

The test system of another experiment is MDA-MB-436 cells. The experiment in a line: Colony formation assay. Type of experiment: cell-based. How it is done: Exponentially growing DLD-1, DLD-1 BRCA2^KO, SUM149PT, and MDA-MB-436 were seeded on 24-well plates at densities of 100, 400, 500, or 650 cells/well, respectively. Cells were treated with a serial dilution of FEN1 inhibitor and incubated for 11 days (DLD-1 and SUM149PT) or 14 days (DLD-1 BRCA2^KO and MDA-MB-436). Colonies were washed with PBS, fixed with 70% ethanol, and stained with 1% crystal violet solution (Sigma–Aldrich). Excess crystal violet solution was washed off using tap water and images were acquired using a GelCount Scanner (Oxford Optronix). Dye was solubilized with 10% acetic acid (VWR) and absorbance at 595 nm measured using a CLARIOstar plate reader (BMG LABTECH Ltd.). Raw absorbance data for each cell line were normalized to DMSO treatment. Data were fitted with a nonlinear regression curve (four parameters) to determine EC50 (half maximal inhibitory concentration) values.

The term IC50 denotes the concentration at which inhibition is half-maximal. High values mean weaker potency in that assay, low ones greater potency in that assay. The EC50 is the concentration giving half of the maximal effect.

Molecules are shown by their SMILES.

T1 sequence (Q9UQ84 whole entry): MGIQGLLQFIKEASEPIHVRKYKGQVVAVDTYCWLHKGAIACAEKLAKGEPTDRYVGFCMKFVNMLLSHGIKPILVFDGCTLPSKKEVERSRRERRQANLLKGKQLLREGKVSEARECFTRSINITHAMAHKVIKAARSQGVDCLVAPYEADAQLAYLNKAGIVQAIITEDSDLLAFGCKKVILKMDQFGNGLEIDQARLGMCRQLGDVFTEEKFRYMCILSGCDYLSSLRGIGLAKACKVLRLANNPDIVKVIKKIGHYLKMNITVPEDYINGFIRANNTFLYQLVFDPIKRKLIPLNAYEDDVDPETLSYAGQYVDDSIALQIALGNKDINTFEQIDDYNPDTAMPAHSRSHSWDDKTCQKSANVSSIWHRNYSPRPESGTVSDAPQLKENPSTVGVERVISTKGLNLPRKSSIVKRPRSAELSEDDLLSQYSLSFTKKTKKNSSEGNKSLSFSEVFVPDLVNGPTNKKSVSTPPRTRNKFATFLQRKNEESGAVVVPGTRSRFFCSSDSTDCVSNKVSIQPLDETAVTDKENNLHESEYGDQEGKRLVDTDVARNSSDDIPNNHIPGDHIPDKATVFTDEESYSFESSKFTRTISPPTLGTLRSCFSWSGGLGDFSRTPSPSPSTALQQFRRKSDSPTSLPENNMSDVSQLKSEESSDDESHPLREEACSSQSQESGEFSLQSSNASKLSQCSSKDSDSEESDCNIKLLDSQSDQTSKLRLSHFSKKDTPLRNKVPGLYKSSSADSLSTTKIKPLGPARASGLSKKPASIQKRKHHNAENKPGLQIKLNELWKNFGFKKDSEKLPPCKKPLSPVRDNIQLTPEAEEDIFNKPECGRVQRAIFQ

`C[C@H](Oc1nn2c(c(O)c1=O)C(=O)N1CCOC[C@@H]1C2)c1ccc2ccc(Cl)cc2c1` [MSC778] displayed an IC50 against EXO1 of 871 nM. Besides, the “NanoBRET potency relative to MSC781” value on NanoLuc-FEN1 is reported as 23 fold. In the experiment with MDA-MB-436 cells (Homo sapiens, 336 h, MDA-MB-436, 14 days, read-out: Colony survival EC50), the EC50 was determined as 65 nM. For the same compound, the “Enhancement in sensitivity in colony survival versus 7-day viability assay” value with MDA-MB-436 cells (MDA-MB-436) came to 10 fold.
